Source: patent publication US20230340011A1 (Asteroid Therapeutics, priority 2022, published 2023)

Target: SREBP-2 (Homo sapiens (Human), UniProt Q12772)
Experiment: In vitro assay SREBP-2: PathHunter U2OS SREBP-2 Nuclear Translocation Cell Line, U18666A-stimulated
Format: cell-based
Settings: PathHunter U2OS SREBP-2 nuclear translocation cells, U18666A 10 μM, overnight (16 hours)

Row | SMILES | IC50 [µM]
1 | CCN(CCc1ccccn1)C(=O)CC[C@@H](C)[C@H]1CC[C@H]2[C@@H]3CC=C4C[C@@H](O)CC[C@]4(C)[C@H]3CC[C@]12C [Example 541, (4R)-4-[(1R,3aS,3bS,7S,9aR,9bS,11aR)-7-hydroxy-9a,11a-dimethyl-1H,2H,3H,3aH,3bH,4H,6H,7H,8H,9H,9aH,9bH,10H,11H,11aH-cyclopenta[a]phenanthren-1-yl]-N-ethyl-N-[2-(pyridin-2-yl)ethyl]pentanamide] | < 0.25
2 | C[C@H](Oc1cncc(CO)c1)[C@H]1CC[C@H]2[C@@H]3CC=C4C[C@@H](O)CC[C@]4(C)[C@H]3CC[C@]12C [Example 269, (3S,8S,9S,10R,13S,14S,17S)-17-((S)-1-((5-(hydroxymethyl)pyridin-3-yl)oxy)ethyl)-10,13-dim ethyl-2,3,4,7,8,9,10,11,12,13,14,15,16,17-tetradecahydro-1H-cyclopenta[a]phenanthren-3-ol] | 0.25 to 1
3 | C[C@H](COc1cc(CO)ccn1)[C@H]1CC[C@H]2[C@@H]3CC=C4C[C@@H](O)CC[C@]4(C)[C@H]3CC[C@]12C [Example 446, (3S,8S,9S,10R,13S,14S,17R)-17-((S)-1-((4-(hydroxymethyl)pyridin-2-yl)oxy)propan-2-yl)-10,13-dimethyl-2,3,4,7,8,9,10,11,12,13,14,15,16,17-tetradecahydro-1H-cyclopenta[a]phenanthren-3-ol] | < 0.25
4 | C[C@H](CCC(=O)N1CCC(N2CCOC(C)(C)C2=O)CC1)[C@H]1CC[C@H]2[C@@H]3CC=C4C[C@@H](O)CC[C@]4(C)[C@H]3CC[C@]12C [Example 524, 4-(1-((R)-4-((3S,8S,9S,10R,13R,14S,17R)-3-hydroxy-10,13-dimethyl-2,3,4,7,8,9,10,11,12,13,14,15,16,17-tetradecahydro-1H-cyclopenta[a]phenanthren-17-yl)pentanoyl)piperidin-4-yl)-2,2-dimethylmorpholin-3-one] | 0.25 to 1
5 | C[C@H](CCC(=O)N1CC[C@H](Nc2ccncc2)C1)[C@H]1CC[C@H]2[C@@H]3CC=C4C[C@@H](O)CC[C@]4(C)[C@H]3CC[C@]12C [Example 530, (4R)-4-[(1R,3aS,3bS,7S,9aR,9bS,11aR)-7-hydroxy-9a,11a-dimethyl-1H,2H,3H,3aH,3bH,4H,6H,7H,8H,9H,9aH,9bH,10H,11H,11aH-cyclopenta[a]phenanthren-1-yl]-1-[(3S)-3-[(pyridin-4-yl)amino]pyrrolidin-1-yl]pentan-1-one] | 0.25 to 1
6 | CNC(=O)NC[C@@H](C)[C@H]1CC[C@H]2[C@@H]3CC=C4C[C@@H](O)CC[C@]4(C)[C@H]3CC[C@]12C [Example 464, 1-((S)-2-((3S,8S,9S,10R,13S,14S,17R)-3-hydroxy-10,13-dimethyl-2,3,4,7,8,9,10,11,12,13,14,15,16,17-tetradecahydro-1H-cyclopenta[a]phenanthren-17-yl)propyl)-3-methylurea] | 0.25 to 1
7 | CC(=O)NC1CN(C(=O)CC[C@@H](C)[C@H]2CC[C@H]3[C@@H]4CC=C5C[C@@H](O)CC[C@]5(C)[C@H]4CC[C@]23C)C1 [Example 326, N-{1-[(4R)-4-[(1R,3aS,3bS,7S,9aR,9bS,11aR)-7-hydroxy-9a,11a-dimethyl-1H,2H,3H,3aH,3bH,4H,6H,7H,8H,9H,9aH,9bH,10H,11H,11aH-cyclopenta[a]phenanthren-1-yl]pentanoyl]azetidin-3-yl}acetamide] | 0.25 to 1
8 | Cc1noc(OC2CCN(C(=O)CC[C@@H](C)[C@H]3CC[C@H]4[C@@H]5CC=C6C[C@@H](O)CC[C@]6(C)[C@H]5CC[C@]34C)CC2)n1 [Example 506, (R)-4-((3S,8S,9S,10R,13R,14S,17R)-3-hydroxy-10,13-dimethyl-2,3,4,7,8,9,10,11,12,13,14,15,16,17-tetradecahydro-1H-cyclopenta[a]phenanthren-17-yl)-1-(4-((3-methyl-1,2,4-oxadiazol-5-yl)oxy)piperidin-1-yl)pentan-1-one] | < 0.25
9 | Cc1ccc(OC[C@@H](C)[C@H]2CC[C@H]3[C@@H]4CC=C5C[C@@H](O)CC[C@]5(C)[C@H]4CC[C@]23C)nc1 [Example 441, (3S,8S,9S,10R,13S,14S,17R)-10,13-dimethyl-17-((S)-1-((5-methylpyridin-2-yl)oxy)propan-2-yl)-2,3,4,7,8,9,10,11,12,13,14,15,16,17-tetradecahydro-1H-cyclopenta[a]phenanthren-3-ol] | 0.25 to 1
10 | Cc1ccncc1O[C@@H](C)[C@H]1CC[C@H]2[C@@H]3CC=C4C[C@@H](O)CC[C@]4(C)[C@H]3CC[C@]12C [Example 433, (3S,8S,9S,10R,13S,14S,17S)-10,13-dimethyl-17-((S)-1-((4-methylpyridin-3-yl)oxy)ethyl)-2,3,4,7,8,9,10,11,12,13,14,15,16,17-tetradecahydro-1H-cyclopenta[a]phenanthren-3-ol] | 0.25 to 1
11 | CNC(=O)c1ccnc(OC[C@@H](C)[C@H]2CC[C@H]3[C@@H]4CC=C5C[C@@H](O)CC[C@]5(C)[C@H]4CC[C@]23C)c1 [Example 254, 2-((S)-2-((3S,8S,9S,10R,13S,14S,17R)-3-hydroxy-10,13-dimethyl-2,3,4,7,8,9,10,11,12,13,14,15,16,17-tetradecahydro-1H-cyclopenta[a]phenanthren-17-yl)propoxy)-N-methylisonicotinamide] | < 0.25
12 | CC(C)C1(O)CCN(C(=O)CC[C@@H](C)[C@H]2CC[C@H]3[C@@H]4CC=C5C[C@@H](O)CC[C@]5(C)[C@H]4CC[C@]23C)CC1 [Example 149, (R)-4-((3S,8S,9S,10R,13R,14S,17R)-3-hydroxy-10,13-dimethyl-2,3,4,7,8,9,10,11,12,13,14,15,16,17-tetradecahydro-1H-cyclopenta[a]phenanthren-17-yl)-1-(4-hydroxy-4-isopropylpiperidin-1-yl) pentan-1-one] | < 0.25
13 | C[C@H](CCc1ncccc1C(C)(C)O)[C@H]1CC[C@H]2[C@@H]3CC=C4C[C@@H](O)CC[C@]4(C)[C@H]3CC[C@]12C [Example 456, (3S,8S,9S,10R,13R,14S,17R)-17-((R)-4-(3-(2-hydroxypropan-2-yl)pyridin-2-yl)butan-2-yl)-10,13-dimethyl-2,3,4,7,8,9,10,11,12,13,14,15,16,17-tetradecahydro-1H-cyclopenta[a]phenanthren-3-ol] | < 0.25
14 | C[C@H](Oc1cncc(CO)c1)[C@H]1CC[C@H]2[C@@H]3CC=C4C[C@@H](O)CC[C@]4(C)[C@H]3CC[C@]12C [Example 436, (3S,8S,9S,10R,13S,14S,17S)-17-((S)-1-((5-(hydroxymethyl)pyridin-3-yl)oxy)ethyl)-10,13-dim ethyl-2,3,4,7,8,9,10,11,12,13,14,15,16,17-tetradecahydro-1H-cyclopenta[a]phenanthren-3-ol] | 0.25 to 1
15 | C[C@H](CCC(=O)N(C)C)[C@H]1CC[C@H]2[C@@H]3CC=C4C[C@H](O)CC[C@]4(C)[C@H]3CC[C@]12C [Example 122, (R)-4-((3R,8S,9S,10R,13R,14S,17R)-3-hydroxy-10,13-dimethyl-2,3,4,7,8,9,10,11,12,13,14,15,16,17-tetradecahydro-1H-cyclopenta[a]phenanthren-17-yl)-N,N-dimethylpentanamide] | > 10
16 | CCN(CC)C(=O)C(=O)O[C@@H](C)[C@H]1CC[C@H]2[C@@H]3CC=C4C[C@@H](O)CC[C@]4(C)[C@H]3CC[C@]12C [Example 154, (1S)-1-[(1S,3aS,3bS,7S,9aR,9bS,11aS)-7-hydroxy-9a,11a-dimethyl-1H,2H,3H,3aH,3bH,4H,6H,7H,8H,9H,9aH,9bH,10H,11H,11aH-cyclopenta[a]phenanthren-1-yl]ethyl (diethylcarbamoyl)formate] | < 0.25
17 | C[C@H](CCC(=O)N1CC[C@H](NC(=O)c2cnccn2)C1)[C@H]1CC[C@H]2[C@@H]3CC=C4C[C@@H](O)CC[C@]4(C)[C@H]3CC[C@]12C [Example 529, N—((S)-1-((R)-4-((3S,8S,9S,10R,13R,14S,17R)-3-hydroxy-10,13-dimethyl-2,3,4,7,8,9,10,11,12,13,14,15,16,17-tetradecahydro-1H-cyclopenta[a]phenanthren-17-yl)pentanoyl)pyrrolidin-3-yl)pyrazine-2-carboxamide] | < 0.25
18 | CNC(=O)c1ccc(O[C@@H](C)[C@H]2CC[C@H]3[C@@H]4CC=C5C[C@@H](O)CC[C@]5(C)[C@H]4CC[C@]23C)cn1 [Example 438, 5-((S)-1-((3S,8S,9S,10R,13S,14S,17S)-3-hydroxy-10,13-dimethyl-2,3,4,7,8,9,10,11,12,13,14,15,16,17-tetradecahydro-1H-cyclopenta[a]phenanthren-17-yl)ethoxy)-N-methylpicolinamide] | 0.25 to 1
19 | C[C@H](Oc1ccccn1)[C@H]1CC[C@H]2[C@@H]3CC=C4C[C@@H](O)CC[C@]4(C)[C@H]3CC[C@]12C [Example 381, (3S,8S,9S,10R,13S,14S,17S)-10,13-dimethyl-17-((S)-1-(pyridin-2-yloxy)ethyl)-2,3,4,7,8,9,10,11,12,13,14,15,16,17-tetradecahydro-1H-cyclopenta[a]phenanthren-3-ol] | 1 to 10
20 | C[C@H](CCC(=O)N1CCC([C@H](O)C(F)(F)F)CC1)[C@H]1CC[C@H]2[C@@H]3CC=C4C[C@@H](O)CC[C@]4(C)[C@H]3CC[C@]12C [Example 468, (4R)-4-[(1R,3aS,3bS,7S,9aR,9bS,11aR)-7-hydroxy-9a,11a-dimethyl-1H,2H,3H,3aH,3bH,4H,6H,7H,8H,9H,9aH,9bH,10H,11H,11aH-cyclopenta[a]phenanthren-1-yl]-1-{4-[(1 S)-2,2,2-trifluoro-1-hydroxyethyl]piperidin-1-yl}pentan-1-one] | < 0.25
21 | CCC1(O)CCN(C(=O)CC[C@@H](C)[C@H]2CC[C@H]3[C@@H]4CC=C5C[C@@](C)(O)CC[C@]5(C)[C@H]4CC[C@]23C)CC1 [Example 371, (R)-1-(4-ethyl-4-hydroxypiperidin-1-yl)-4-((3S,8S,9S,10R,13R,14S,17R)-3-hydroxy-3,10,13-trimethyl-2,3,4,7,8,9,10,11,12,13,14,15,16,17-tetradecahydro-1H-cyclopenta[a]phenanthren-17-yl)pentan-1-one] | 0.25 to 1
